Holding throughout (format): functional
The target of assay [1] is RAC-gamma serine/threonine-protein kinase (Homo sapiens, UniProt Q9Y243).
Assay [2] concerns the target Testis-specific serine/threonine-protein kinase 1 (Homo sapiens, UniProt Q9BXA7).
The target of assay [3] is Tyrosine-protein kinase receptor TYRO3 (Homo sapiens, UniProt Q06418).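 Further: TYRO3 value obtained as one member of a kinome-wide profiling panel.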
Assay [4] addresses Fibroblast growth factor receptor 3 (Homo sapiens, UniProt P22607).
For assay [5], the target named is Calcium/calmodulin-dependent protein kinase type 1 (Homo sapiens, UniProt Q14012).
The target of assay [6] is Tyrosine-protein kinase ITK/TSK (Homo sapiens, UniProt Q08881).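 Further: affinity for ITK measured as one member of a broad kinase panel profiling binding across the kinome.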
Assay [7] addresses cGMP-dependent protein kinase 1 (Homo sapiens, UniProt Q13976).
For assay [8], the target named is Mitogen-activated protein kinase 1 (Homo sapiens, UniProt P28482).
For assay [9], the target named is Ribosomal protein S6 kinase alpha-3 (Homo sapiens, UniProt P51812).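 Further: measured within a kinome-wide profiling panel.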
For assay [10], the target named is Dual specificity tyrosine-phosphorylation-regulated kinase 3 (Homo sapiens, UniProt O43781).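 Further: measured as one member of a broad kinase panel.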
Dual specificity tyrosine-phosphorylation-regulated kinase 3, sequence (O43781 whole entry): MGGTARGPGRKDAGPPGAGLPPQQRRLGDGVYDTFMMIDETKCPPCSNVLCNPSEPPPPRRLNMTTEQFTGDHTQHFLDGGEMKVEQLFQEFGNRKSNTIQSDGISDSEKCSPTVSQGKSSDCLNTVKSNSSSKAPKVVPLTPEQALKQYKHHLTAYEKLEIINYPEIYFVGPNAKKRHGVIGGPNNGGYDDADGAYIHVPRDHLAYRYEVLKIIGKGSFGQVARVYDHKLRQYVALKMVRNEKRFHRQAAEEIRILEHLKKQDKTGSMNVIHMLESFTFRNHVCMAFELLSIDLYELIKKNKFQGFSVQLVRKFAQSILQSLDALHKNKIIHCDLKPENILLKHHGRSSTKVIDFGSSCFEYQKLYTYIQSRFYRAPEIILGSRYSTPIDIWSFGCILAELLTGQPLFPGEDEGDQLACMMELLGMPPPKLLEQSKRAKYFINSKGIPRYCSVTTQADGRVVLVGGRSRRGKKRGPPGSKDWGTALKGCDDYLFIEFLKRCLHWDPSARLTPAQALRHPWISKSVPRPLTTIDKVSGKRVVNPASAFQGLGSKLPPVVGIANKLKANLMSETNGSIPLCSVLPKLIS
For assay [11], the target named is Serine/threonine-protein kinase 3 (Homo sapiens, UniProt Q13188).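 Further: measured as one member of a kinome-wide kinase panel.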
Serine/threonine-protein kinase 3, sequence (Q13188 whole entry): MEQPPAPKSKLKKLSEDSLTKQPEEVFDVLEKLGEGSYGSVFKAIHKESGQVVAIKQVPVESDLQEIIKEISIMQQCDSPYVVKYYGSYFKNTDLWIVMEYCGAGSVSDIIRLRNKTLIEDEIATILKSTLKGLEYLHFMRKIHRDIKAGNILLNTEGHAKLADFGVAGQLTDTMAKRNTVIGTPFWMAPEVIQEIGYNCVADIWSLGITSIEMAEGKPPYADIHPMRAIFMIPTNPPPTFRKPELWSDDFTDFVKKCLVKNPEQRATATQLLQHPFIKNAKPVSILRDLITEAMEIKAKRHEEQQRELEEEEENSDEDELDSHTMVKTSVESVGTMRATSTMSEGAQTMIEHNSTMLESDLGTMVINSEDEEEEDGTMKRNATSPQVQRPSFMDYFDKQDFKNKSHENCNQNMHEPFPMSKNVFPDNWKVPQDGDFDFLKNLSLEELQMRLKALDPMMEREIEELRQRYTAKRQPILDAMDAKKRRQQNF
Assay [12] concerns the target Tyrosine-protein kinase Fer (Homo sapiens, UniProt P16591).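 Further: FER tested as one member of a kinome panel.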
Assay [13] concerns the target Protein-tyrosine kinase 6 (Homo sapiens, UniProt Q13882).
For assay [14], the target named is Serine/threonine-protein kinase PAK 1 (Homo sapiens, UniProt Q13153).
The target in assay [15] is Tyrosine-protein kinase ABL1 (Homo sapiens, UniProt P00519).
Tyrosine-protein kinase ABL1, sequence (P00519 whole entry): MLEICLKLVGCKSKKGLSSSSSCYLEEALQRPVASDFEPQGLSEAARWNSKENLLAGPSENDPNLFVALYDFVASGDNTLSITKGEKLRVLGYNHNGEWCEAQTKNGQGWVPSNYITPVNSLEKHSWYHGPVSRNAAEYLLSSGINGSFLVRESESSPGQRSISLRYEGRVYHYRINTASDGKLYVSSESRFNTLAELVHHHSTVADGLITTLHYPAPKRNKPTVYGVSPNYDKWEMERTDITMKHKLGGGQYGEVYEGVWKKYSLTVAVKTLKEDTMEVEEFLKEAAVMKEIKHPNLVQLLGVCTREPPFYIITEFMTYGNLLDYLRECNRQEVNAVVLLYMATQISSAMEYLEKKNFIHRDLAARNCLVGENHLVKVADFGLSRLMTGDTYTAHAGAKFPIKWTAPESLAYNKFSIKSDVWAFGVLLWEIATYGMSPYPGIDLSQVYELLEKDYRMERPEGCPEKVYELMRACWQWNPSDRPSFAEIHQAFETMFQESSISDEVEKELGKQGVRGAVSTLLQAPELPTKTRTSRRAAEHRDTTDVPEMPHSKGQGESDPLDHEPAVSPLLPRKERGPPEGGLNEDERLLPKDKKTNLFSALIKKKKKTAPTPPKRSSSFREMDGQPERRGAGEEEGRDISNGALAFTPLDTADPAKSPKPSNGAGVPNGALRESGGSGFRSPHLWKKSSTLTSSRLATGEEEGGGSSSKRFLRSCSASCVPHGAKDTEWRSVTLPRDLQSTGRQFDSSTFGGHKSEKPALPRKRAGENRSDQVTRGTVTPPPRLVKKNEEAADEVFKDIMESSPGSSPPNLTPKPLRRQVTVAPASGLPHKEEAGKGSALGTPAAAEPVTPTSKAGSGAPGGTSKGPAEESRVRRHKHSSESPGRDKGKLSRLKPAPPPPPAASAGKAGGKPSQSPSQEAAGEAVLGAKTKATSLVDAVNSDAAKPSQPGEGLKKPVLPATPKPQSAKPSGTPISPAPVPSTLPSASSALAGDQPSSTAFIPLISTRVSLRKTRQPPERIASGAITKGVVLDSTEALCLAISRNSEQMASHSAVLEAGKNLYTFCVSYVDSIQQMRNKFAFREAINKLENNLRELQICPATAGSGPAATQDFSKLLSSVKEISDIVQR
Assay [16] deals with Macrophage colony-stimulating factor 1 receptor (Homo sapiens, UniProt P07333).
Macrophage colony-stimulating factor 1 receptor, sequence (P07333 whole entry): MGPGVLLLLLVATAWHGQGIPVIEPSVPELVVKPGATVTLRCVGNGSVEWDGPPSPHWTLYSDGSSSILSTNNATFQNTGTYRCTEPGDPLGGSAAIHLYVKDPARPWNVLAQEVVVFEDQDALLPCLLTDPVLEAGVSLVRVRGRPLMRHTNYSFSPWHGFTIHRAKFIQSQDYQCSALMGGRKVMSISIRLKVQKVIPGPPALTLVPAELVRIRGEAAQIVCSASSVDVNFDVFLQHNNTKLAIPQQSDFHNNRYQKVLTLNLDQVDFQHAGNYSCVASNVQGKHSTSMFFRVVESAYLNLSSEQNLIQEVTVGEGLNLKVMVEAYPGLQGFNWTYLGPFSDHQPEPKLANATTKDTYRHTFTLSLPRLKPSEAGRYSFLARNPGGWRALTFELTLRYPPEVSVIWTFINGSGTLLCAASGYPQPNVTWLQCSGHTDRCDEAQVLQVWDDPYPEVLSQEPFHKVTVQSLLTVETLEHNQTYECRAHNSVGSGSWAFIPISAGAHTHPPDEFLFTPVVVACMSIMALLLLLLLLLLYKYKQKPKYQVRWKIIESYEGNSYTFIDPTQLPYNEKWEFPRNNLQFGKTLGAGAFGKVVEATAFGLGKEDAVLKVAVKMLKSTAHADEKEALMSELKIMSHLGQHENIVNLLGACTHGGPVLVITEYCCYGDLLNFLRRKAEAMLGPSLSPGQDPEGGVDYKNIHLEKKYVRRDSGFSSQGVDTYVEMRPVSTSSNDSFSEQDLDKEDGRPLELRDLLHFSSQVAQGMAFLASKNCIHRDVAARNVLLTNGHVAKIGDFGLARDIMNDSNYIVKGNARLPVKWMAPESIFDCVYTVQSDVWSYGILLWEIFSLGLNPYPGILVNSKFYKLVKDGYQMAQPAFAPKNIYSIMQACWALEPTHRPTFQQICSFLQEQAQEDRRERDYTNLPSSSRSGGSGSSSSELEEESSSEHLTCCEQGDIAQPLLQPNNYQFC
In assay [17] the target is Cyclin-dependent kinase 7 (Homo sapiens, UniProt P50613).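 Further: value comes from a kinome-wide kinase profiling panel in which CDK7 is one member.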
Cyclin-dependent kinase 7, sequence (P50613 whole entry): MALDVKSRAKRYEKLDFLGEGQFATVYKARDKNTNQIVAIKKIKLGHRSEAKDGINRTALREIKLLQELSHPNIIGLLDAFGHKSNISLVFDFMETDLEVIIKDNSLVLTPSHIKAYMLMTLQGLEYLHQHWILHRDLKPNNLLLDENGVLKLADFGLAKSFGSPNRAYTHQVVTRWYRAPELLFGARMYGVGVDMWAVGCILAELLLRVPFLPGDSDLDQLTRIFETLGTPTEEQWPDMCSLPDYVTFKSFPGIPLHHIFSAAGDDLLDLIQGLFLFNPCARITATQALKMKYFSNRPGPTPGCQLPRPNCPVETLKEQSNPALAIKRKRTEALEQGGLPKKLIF
Assay [18] addresses Proto-oncogene tyrosine-protein kinase Src (Homo sapiens, UniProt P12931).
In assay [19] the target is Mitogen-activated protein kinase 13 (Homo sapiens, UniProt O15264).

The source of these data is ChEMBL document CHEMBL1201862, “PubChem BioAssay data set” (2004).

Calls of active or inactive are those of the source.

For orientation: Ki means a measure of affinity in units of concentration, obtained from inhibition or displacement.

Fibroblast growth factor receptor 3, sequence (P22607 whole entry): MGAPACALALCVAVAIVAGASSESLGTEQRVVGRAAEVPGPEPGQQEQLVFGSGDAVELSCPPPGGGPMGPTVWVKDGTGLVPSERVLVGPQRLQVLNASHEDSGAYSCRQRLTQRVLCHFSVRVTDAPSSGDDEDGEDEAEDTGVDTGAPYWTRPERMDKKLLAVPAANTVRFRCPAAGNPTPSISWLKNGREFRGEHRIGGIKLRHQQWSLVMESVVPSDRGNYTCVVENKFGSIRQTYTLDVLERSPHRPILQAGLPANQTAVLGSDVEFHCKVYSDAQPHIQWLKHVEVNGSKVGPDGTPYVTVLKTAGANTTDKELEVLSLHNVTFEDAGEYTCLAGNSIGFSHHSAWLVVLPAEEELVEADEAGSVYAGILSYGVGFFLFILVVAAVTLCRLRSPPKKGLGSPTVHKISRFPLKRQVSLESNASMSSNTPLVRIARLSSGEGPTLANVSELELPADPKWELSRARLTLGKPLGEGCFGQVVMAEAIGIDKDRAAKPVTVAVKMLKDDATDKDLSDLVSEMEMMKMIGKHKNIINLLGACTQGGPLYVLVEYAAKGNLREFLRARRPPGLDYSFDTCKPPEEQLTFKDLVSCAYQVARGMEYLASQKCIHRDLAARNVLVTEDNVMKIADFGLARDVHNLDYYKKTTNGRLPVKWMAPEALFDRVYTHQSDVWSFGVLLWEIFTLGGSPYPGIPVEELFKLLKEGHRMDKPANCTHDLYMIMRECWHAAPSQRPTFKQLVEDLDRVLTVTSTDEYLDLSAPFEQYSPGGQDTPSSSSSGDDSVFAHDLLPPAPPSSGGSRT
cGMP-dependent protein kinase 1, sequence (Q13976 whole entry): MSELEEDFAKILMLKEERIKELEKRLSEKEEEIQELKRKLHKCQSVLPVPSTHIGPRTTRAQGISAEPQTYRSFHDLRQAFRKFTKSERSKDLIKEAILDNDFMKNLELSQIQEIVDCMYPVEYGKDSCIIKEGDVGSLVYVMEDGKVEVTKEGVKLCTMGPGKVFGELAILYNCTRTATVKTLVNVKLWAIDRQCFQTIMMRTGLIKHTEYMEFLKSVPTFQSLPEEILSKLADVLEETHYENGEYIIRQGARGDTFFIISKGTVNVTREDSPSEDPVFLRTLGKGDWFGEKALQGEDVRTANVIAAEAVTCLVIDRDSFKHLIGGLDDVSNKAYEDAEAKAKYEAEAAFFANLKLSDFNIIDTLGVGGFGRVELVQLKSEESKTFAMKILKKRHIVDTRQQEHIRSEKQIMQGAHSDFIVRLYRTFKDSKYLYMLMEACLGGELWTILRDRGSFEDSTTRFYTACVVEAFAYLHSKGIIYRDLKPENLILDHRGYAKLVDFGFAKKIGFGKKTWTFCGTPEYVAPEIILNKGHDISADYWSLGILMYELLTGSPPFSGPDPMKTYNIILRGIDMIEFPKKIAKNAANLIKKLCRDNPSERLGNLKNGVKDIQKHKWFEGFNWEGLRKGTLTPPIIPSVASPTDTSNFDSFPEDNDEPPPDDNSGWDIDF

Regarding `NC1CCCCC1Nc1nccc(-c2c[nH]c3ncccc23)n1` (centres undefined), the Ki was 501 nM (active) in [1]; 15.8 nM (active) in assay [2]; > 2000 nM (inactive) in assay [3]; > 2000 nM (inactive) in [4]; > 2000 nM (inactive) in [5]; > 1580 nM (inactive) in [6]. In addition, the inhibition constant Ki was 158 nM (active) in [7]; 501 nM (active) in [8]; 100 nM (active) in assay [9]; 126 nM (active) in assay [10]; 251 nM (active) in assay [11]; 1580 nM (active) in assay [12]. Besides, the Ki in [13] was > 2510 nM (inactive); in assay [14], 3160 nM (active); in assay [15], > 631 nM (inactive); in [16], > 2510 nM (inactive); in assay [17], 6.31 nM (active); in assay [18] it was > 2000 nM (inactive). Also, the Ki in assay [19] was 398 nM (active).
